How the values were obtained:
[1] = test system: A549; assay: In vitro cell proliferation assay (MTT); format: cell-based; details: Homo sapiens, A549, 72 h
Procedure: (§1) Cancer cell lines (5×10^3 cells per well) or HUVEC (1×10^4 cells per well) or HRMEC (1×10^4 cells per well) were distributed in 96-well plates and incubating in duplicate with escalating concentrations (10 nM to 3 μM) of compounds for 72 hr. Cell proliferation was measured using MTT (3 [4,5-dimethylthiazol-2-yl]-2,5-diphenyltetrazolium bromide).

[2] = test system: BxPC-3; assay: In vitro cell proliferation assay (MTT); format: cell-based; details: Homo sapiens, BXPC-3, 72 h
Procedure: as §1

[3] = test system: HT29; assay: In vitro cell proliferation assay (MTT); format: cell-based; details: Homo sapiens, HT-29, 72 h
Procedure: as §1

[4] = test system: H1975; assay: In vitro cell proliferation assay (MTT); format: cell-based; details: Homo sapiens, NCI-H1975, 72 h
Procedure: as §1

[5] = test system: HepG2; assay: In vitro cell proliferation assay (MTT); format: cell-based; details: Homo sapiens, HepG2, 72 h
Procedure: as §1

[6] = test system: HUVEC; assay: In vitro cell proliferation assay (MTT); format: cell-based; details: Homo sapiens, 72 h
Procedure: as §1

[7] = test system: HuCCT1; assay: In vitro cell proliferation assay (MTT); format: cell-based; details: Homo sapiens, HuCCT-1, 72 h
Procedure: as §1

[8] = biological target: T1, PDGFRB (Homo sapiens, UniProt P09619); assay: In vitro kinase assay (Z′-LYTE); format: biochemical; details: read-out: % of inhibition of the kinase compared to the control
T1 construct: purchased Invitrogen
Procedure: (§2) The inhibitory activity of the compounds on several kinases including BRAF, EGFR (ErbB1), EGFR (ErbB1) T790M L858R, FGFR2, KDR (VEGFR2), PDGFRA (PDGFR alpha), SRC and other was evaluated by Invitrogen using the Z′-LYTE® technology. Briefly, the Z′-LYTE® biochemical assay employs a fluorescence-based, coupled-enzyme format and is based on the differential sensitivity of phosphorylated and non-phosphorylated peptides to proteolytic cleavage. The peptide substrate is labeled with two fluorophores—one at each end—that make up a FRET pair. A ratiometric method, which calculates the ratio (the Emission Ratio) of donor emission to acceptor emission after excitation of the donor fluorophore at 400 nm, is used to quantitate reaction progress.
(§3) The compounds are screened in 1% DMSO (final) in the well. For 10 point titrations, 3-fold serial dilutions are conducted from the starting concentration. All Peptide/Kinase Mixtures are diluted to a 2× working concentration in the appropriate Kinase Buffer. All ATP Solutions are diluted to a 4× working concentration in Kinase Buffer (50 mM HEPES pH 7.5, 0.01% BRIJ-35, 10 mM MgCl2, 1 mM EGTA). ATP Km apparent is previously determined using a Z′-LYTE® assay.
(§4) Each compound was incubated at a concentration of 100 nM (excepted to test the activity against ABL and ABL T315I for which the compounds were incubated at a concentration of 10 μM) and the tables B1 to B12 summarize the results obtained showing the inhibitory power of a compound. The inhibitory activity of OR0512 was also investigated using the same assays and the kinases for which activity was inhibited at more than 50% at the concentration of 100 nM of OR0512 are listed in the table B13.

[9] = biological target: T2, KDR (VEGFR2) (Homo sapiens, UniProt P35968); assay: In vitro kinase assay (Z′-LYTE); format: biochemical; details: read-out: % of inhibition of the kinase compared to the control
T2 construct: purchased Invitrogen
Procedure: as §2, §3, §4

[10] = biological target: T3, SRC (Homo sapiens, UniProt P12931); assay: In vitro kinase assay (Z′-LYTE); format: biochemical; details: read-out: % of inhibition of the kinase compared to the control
T3 construct: purchased Invitrogen
Procedure: as §2, §3, §4

[11] = biological target: T4, FGFR2 (Homo sapiens, UniProt P21802); assay: In vitro kinase assay (Z′-LYTE); format: biochemical; details: read-out: % of inhibition of the kinase compared to the control
T4 construct: purchased Invitrogen
Procedure: as §2, §3, §4

[12] = biological target: T5, EGFR (ErbB1) (Homo sapiens, UniProt P00533); assay: In vitro kinase assay (Z′-LYTE); format: biochemical; details: read-out: % of inhibition of the kinase compared to the control
T5 construct: purchased Invitrogen
Procedure: as §2, §3, §4

[13] = biological target: T6, VEGFR1 (Homo sapiens, UniProt P17948); assay: In vitro kinase assay (Z′-LYTE); format: biochemical; details: read-out: % of inhibition of the kinase compared to the control
T6 construct: purchased Invitrogen
Procedure: as §2, §3, §4

[14] = biological target: T7, ABL (Homo sapiens, UniProt P00519); assay: In vitro kinase assay (Z′-LYTE); format: biochemical; details: read-out: % of inhibition of the kinase compared to the control
T7 construct: purchased Invitrogen
Procedure: as §2, §3, §4

[15] = biological target: T8, ABL T315I (Homo sapiens, UniProt P00519, T315I); assay: In vitro kinase assay (Z′-LYTE); format: biochemical; details: read-out: % of inhibition of the kinase compared to the control
T8 construct: purchased Invitrogen
Procedure: as §2, §3, §4

[16] = biological target: T9, EGFR (ErbB1) T790M L858R (Homo sapiens, UniProt P00533, L858R/T790M); assay: In vitro kinase assay (Z′-LYTE); format: biochemical; details: read-out: % of inhibition of the kinase compared to the control
T9 construct: purchased Invitrogen
Procedure: as §2, §3, §4

[17] = biological target: T10, FGFR1 (Homo sapiens, UniProt P11362); assay: In vitro kinase assay (Z′-LYTE); format: biochemical; details: read-out: % of inhibition of the kinase compared to the control
T10 construct: purchased Invitrogen
Procedure: as §2, §3, §4

[18] = biological target: T11, BRAF (Homo sapiens, UniProt P15056); assay: In vitro kinase assay (Z′-LYTE); format: biochemical; details: compound 100 nM; ATP 100 μM; read-out: % of inhibition of the kinase compared to the control
T11 construct: purchased Invitrogen
Procedure: as §2, §3, §4

[19] = biological target: T12, PDGFRA (PDGFR alpha) (Homo sapiens, UniProt P16234); assay: In vitro kinase assay (Z′-LYTE); format: biochemical; details: read-out: % of inhibition of the kinase compared to the control
T12 construct: purchased Invitrogen
Procedure: as §2, §3, §4

[20] = test system: HuH7; assay: In vitro cell proliferation assay (MTT); format: cell-based; details: Homo sapiens, Huh-7, 72 h
Procedure: as §1

T9 sequence (P00533 25-1210 T790M/L858R): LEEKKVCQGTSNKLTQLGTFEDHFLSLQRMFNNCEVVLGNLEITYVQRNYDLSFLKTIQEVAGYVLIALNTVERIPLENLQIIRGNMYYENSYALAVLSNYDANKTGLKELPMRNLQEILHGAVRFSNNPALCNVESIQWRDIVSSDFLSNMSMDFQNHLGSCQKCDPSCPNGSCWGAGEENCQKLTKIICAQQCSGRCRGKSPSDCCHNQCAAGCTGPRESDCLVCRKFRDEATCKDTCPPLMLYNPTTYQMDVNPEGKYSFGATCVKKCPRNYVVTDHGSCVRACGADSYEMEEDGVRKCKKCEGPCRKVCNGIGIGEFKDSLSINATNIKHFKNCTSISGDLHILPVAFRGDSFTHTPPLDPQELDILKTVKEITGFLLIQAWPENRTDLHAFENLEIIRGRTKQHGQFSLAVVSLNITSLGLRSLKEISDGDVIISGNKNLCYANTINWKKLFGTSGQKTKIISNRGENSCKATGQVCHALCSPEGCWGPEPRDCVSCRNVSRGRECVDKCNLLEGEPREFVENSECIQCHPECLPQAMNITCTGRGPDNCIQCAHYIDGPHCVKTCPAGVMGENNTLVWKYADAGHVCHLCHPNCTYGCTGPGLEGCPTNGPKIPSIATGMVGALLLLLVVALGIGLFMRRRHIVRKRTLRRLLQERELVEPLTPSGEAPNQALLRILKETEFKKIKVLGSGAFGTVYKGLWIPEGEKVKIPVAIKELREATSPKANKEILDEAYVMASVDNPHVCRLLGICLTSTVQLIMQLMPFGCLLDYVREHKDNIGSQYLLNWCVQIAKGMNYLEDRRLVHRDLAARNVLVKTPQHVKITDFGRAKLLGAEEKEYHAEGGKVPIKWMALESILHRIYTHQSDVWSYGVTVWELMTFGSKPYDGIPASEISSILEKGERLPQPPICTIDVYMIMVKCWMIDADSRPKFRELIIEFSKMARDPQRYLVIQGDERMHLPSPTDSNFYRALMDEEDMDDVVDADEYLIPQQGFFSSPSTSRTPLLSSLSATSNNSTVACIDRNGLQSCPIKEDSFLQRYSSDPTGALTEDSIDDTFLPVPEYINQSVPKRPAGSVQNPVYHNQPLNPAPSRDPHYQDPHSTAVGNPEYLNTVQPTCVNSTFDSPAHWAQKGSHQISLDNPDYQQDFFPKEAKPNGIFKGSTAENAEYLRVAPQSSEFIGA
T11 sequence (P15056 whole entry): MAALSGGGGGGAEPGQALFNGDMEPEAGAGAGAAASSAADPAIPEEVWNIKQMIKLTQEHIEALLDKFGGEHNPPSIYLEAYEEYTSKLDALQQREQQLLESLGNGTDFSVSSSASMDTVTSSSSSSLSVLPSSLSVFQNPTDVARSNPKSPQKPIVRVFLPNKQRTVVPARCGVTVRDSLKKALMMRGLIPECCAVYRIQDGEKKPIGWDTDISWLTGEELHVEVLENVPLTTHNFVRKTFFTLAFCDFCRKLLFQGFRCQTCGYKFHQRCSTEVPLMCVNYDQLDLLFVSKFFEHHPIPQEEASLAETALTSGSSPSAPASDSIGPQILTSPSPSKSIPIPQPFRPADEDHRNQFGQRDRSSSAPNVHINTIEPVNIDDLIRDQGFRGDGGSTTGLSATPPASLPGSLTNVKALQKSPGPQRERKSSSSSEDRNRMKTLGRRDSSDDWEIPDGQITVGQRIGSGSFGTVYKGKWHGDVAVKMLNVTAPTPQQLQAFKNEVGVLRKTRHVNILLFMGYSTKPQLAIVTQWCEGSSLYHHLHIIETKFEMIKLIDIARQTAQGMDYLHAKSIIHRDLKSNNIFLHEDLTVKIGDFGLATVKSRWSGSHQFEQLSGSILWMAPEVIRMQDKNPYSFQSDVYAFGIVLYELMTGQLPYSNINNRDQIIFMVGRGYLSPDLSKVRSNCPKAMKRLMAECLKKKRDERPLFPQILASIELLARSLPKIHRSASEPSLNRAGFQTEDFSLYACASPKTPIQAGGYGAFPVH
T4 sequence (P21802 22-821): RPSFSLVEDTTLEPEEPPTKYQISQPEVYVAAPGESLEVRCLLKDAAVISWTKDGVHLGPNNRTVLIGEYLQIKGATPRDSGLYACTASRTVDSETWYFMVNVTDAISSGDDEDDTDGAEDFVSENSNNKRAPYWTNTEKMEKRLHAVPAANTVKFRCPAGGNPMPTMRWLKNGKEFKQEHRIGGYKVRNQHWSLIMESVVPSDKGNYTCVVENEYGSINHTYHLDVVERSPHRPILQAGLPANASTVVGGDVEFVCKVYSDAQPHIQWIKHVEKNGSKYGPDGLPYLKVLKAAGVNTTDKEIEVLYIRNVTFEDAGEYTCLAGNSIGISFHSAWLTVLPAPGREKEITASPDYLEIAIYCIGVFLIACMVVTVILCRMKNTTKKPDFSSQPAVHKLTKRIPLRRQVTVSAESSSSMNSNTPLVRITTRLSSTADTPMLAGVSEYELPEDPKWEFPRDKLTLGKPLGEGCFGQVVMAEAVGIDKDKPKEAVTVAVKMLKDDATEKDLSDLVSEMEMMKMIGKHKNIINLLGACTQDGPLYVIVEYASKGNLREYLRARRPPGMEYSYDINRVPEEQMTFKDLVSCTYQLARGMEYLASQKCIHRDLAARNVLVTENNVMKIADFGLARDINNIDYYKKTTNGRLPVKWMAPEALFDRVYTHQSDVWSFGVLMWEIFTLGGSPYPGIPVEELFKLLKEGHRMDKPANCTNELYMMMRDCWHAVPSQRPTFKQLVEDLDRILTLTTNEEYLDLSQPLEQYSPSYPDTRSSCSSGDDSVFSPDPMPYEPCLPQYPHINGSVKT
T10 sequence (P11362 22-822): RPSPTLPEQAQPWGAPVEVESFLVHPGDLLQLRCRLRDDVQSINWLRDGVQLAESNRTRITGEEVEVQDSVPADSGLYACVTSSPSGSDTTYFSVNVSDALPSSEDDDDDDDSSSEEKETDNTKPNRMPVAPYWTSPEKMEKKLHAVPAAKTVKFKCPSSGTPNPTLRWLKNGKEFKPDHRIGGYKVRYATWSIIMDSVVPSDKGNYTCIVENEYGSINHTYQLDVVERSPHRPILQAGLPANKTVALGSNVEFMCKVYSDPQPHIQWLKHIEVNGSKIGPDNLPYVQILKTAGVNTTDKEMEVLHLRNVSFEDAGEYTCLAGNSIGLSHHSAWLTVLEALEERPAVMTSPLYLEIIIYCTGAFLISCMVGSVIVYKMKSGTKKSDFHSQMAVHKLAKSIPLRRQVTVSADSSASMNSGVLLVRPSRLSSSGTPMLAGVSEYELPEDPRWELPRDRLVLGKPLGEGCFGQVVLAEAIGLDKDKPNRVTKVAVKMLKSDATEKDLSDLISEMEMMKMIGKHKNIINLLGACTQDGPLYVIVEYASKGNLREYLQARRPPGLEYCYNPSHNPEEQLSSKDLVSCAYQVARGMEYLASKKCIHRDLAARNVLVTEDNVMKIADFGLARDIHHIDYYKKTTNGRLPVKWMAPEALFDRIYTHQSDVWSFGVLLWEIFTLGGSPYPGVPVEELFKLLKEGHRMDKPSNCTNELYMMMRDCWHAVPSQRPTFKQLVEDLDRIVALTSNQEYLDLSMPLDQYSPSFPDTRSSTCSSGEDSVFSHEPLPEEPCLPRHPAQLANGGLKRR
T5 sequence (P00533 25-1210): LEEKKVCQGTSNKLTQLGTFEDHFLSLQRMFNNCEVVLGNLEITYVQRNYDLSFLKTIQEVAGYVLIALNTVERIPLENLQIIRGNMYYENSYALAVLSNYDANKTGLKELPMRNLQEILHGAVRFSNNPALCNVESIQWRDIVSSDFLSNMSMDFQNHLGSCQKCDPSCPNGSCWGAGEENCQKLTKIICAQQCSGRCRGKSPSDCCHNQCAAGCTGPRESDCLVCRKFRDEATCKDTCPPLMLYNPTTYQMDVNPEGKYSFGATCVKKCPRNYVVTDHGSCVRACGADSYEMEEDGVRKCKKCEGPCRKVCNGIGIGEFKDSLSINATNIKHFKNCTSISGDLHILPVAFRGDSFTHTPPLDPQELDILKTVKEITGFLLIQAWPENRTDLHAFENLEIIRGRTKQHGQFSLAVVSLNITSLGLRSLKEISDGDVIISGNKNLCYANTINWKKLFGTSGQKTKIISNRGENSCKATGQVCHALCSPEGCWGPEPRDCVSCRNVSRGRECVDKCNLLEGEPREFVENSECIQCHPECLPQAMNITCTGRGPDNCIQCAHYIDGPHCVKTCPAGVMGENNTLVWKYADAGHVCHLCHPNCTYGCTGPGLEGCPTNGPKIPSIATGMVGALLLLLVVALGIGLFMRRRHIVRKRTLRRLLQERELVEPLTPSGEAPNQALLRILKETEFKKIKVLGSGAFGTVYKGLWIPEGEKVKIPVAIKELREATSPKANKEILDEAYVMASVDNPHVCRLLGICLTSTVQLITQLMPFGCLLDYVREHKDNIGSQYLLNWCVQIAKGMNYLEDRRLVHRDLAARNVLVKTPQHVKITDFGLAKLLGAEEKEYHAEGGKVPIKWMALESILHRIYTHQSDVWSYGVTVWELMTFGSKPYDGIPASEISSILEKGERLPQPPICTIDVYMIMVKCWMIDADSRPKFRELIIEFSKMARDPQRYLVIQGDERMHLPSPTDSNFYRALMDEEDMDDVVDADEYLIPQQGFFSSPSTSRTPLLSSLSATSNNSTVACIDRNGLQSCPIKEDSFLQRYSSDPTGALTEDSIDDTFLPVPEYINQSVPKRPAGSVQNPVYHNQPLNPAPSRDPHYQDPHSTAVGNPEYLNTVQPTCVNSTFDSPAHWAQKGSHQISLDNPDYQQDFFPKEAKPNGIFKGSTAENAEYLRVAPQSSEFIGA

SMILES	EC50 [1] [nM]	EC50 [2] [nM]	EC50 [3] [nM]	EC50 [4] [nM]	EC50 [5] [nM]	EC50 [6] [nM]	EC50 [7] [nM]	inhibition at 0.1 µM [8] [%]	inhibition at 0.1 µM [9] [%]	inhibition at 0.1 µM [10] [%]	inhibition at 0.1 µM [11] [%]	inhibition at 0.1 µM [12] [%]	inhibition at 0.1 µM [13] [%]	inhibition at 10 µM [14] [%]	inhibition at 10 µM [15] [%]	inhibition at 0.1 µM [16] [%]	inhibition at 0.1 µM [17] [%]	inhibition at 0.1 µM [18] [%]	inhibition at 0.1 µM [19] [%]	EC50 [20] [nM]
COC(=O)c1cc2cc(NCc3cc(NC(=O)Cc4ccccc4Br)ccc3C)cnc2[nH]1 [OR0599]	100 to 1000	≥ 1000	≥ 1000	100 to 1000	100 to 1000	100 to 1000	≥ 1000	≥ 50	< 50	≥ 50	< 50	< 50	< 50	≥ 50	< 50	< 50	< 50	≥ 50	≥ 50	–
COC(=O)c1cc2cc(NCc3cc(NC(=O)c4ccc(O)c(C(F)(F)F)c4)ccc3C)cnc2[nH]1 [OR0605]	–	≥ 1000	–	–	–	–	–	< 50	< 50	≥ 50	< 50	≥ 50	< 50	≥ 50	< 50	< 50	< 50	< 50	≥ 50	100 to 1000
COC(=O)c1cc2cc(NCc3cc(NC(=O)c4cccc(C)c4)ccc3C)cnc2[nH]1 [OR0607]	100 to 1000	100 to 1000	100 to 1000	100 to 1000	100 to 1000	≤ 100	100 to 1000	≥ 50	≥ 50	≥ 50	< 50	< 50	< 50	≥ 50	< 50	< 50	< 50	≥ 50	≥ 50	–
COC(=O)c1cc2cc(NCc3cc(NC(=O)c4ccc5c(c4)OCO5)ccc3C)cnc2[nH]1 [OR0615]	≥ 1000	≥ 1000	≥ 1000	≥ 1000	≥ 1000	100 to 1000	≥ 1000	≥ 50	≥ 50	≥ 50	< 50	< 50	< 50	≥ 50	< 50	< 50	< 50	≥ 50	≥ 50	–
COC(=O)c1cc2cc(NCc3cc(NC(=O)c4ccc(CN5CCN(C)CC5)c(C(F)(F)F)c4)ccc3F)cnc2[nH]1 [OR0816]	–	–	–	–	100 to 1000	≤ 100	–	–	≥ 50	≥ 50	≥ 50	≥ 50	–	–	–	–	–	< 50	≥ 50	100 to 1000
COC(=O)c1cc2cc(NCc3cc(NC(=O)c4ccc(C(F)(F)F)nc4)ccc3C)cnc2[nH]1 [OR0865]	–	–	–	–	100 to 1000	100 to 1000	–	–	< 50	–	< 50	≥ 50	–	–	–	–	–	≥ 50	–	≥ 1000
COC(=O)c1cc2cc(NCc3cc(NC(=O)c4ccnc(C(F)(F)F)c4)ccc3C)cnc2[nH]1 [OR0866]	–	–	–	–	100 to 1000	100 to 1000	–	–	< 50	–	< 50	< 50	–	–	–	–	–	< 50	< 50	≥ 1000
COC(=O)c1cc2cc(NCc3cc(NC(=O)c4cncc(C)c4)ccc3C)cnc2[nH]1 [OR0867]	–	–	–	–	100 to 1000	≥ 1000	–	–	≥ 50	–	< 50	≥ 50	–	–	–	–	–	≥ 50	–	≥ 1000
COC(=O)c1cc2cc(NCc3cc(NC(=O)c4ccnc(C)c4)ccc3C)cnc2[nH]1 [OR0868]	–	–	–	–	≥ 1000	100 to 1000	–	–	< 50	–	< 50	< 50	–	–	–	–	–	≥ 50	–	≥ 1000
COC(=O)c1cc2cc(NCc3cc(NC(=O)c4ccc(C)c(C(F)(F)F)c4)ccc3C)cnc2[nH]1 [OR0869]	–	–	–	–	≥ 1000	100 to 1000	–	–	< 50	≥ 50	< 50	≥ 50	–	–	–	–	–	< 50	< 50	100 to 1000
COC(=O)c1cc2cc(NCc3cc(NC(=O)c4ccc(Cl)c(C(F)(F)F)c4)ccc3C)cnc2[nH]1 [OR0871]	–	–	–	–	100 to 1000	100 to 1000	–	–	< 50	≥ 50	< 50	≥ 50	–	–	–	–	–	< 50	≥ 50	100 to 1000
COC(=O)c1cc2cc(NCc3cc(NS(=O)(=O)c4cccc(C(F)(F)F)c4)ccc3C)cnc2[nH]1 [OR0882]	–	–	–	–	≥ 1000	≥ 1000	–	–	< 50	–	< 50	< 50	–	–	–	–	–	< 50	< 50	≥ 1000

— patent US9493455B2, “Azaindole derivatives as inhibitors of protein kinases” (ORIBASE PHARMA, priority 2012, dated 2016)
